{
  "source": "paper PMC2011122",
  "about": "(British Journal of Cancer, 1982)",
  "key": {"[1]": {"conditions": "cited from earlier work"}, "[2]": {"assay": "Polymorphic acetylation in humans", "type": "in vivo", "conditions": "conclusion from urinary excretion in 10 phenotyped volunteers"}, "[3]": {"set-up": "method as in Coombes et al. (1980)", "conditions": "after AG, ref Coombes et al. (1980), cited from earlier work"}, "bovine adrenal cells": {"system": "bovine adrenal cells", "set-up": "method as in Coombes et al., 1980", "conditions": "bovine adrenal cells in culture, ref Coombes et al., 1980, cited from earlier work; for Glucocorticoid production, % of the resting levels: 10 ug/ml"}, "mammary carcinoma": {"system": "mammary carcinoma", "set-up": "method as in Smith et al., 1978", "conditions": "postmenopausal women; ref Smith et al., 1978; cited from earlier work"}, "[4]": {"set-up": "method as in Douglas & Nicholls, 1972", "conditions": "humans, urine; ref Douglas & Nicholls, 1972; cited from earlier work"}, "[5]": {"assay": "24 h urinary excretion of AG and metabolites in volunteers given oral AG", "conditions": "oral AG 250 mg, 24 h urine, excreted as the named substance; for Percentage of the administered dose excreted in the urine during 24 h, mean, rapid (fast) acetylators: rapid acetylators of sulphadimidine (5 volunteers); for Percentage of the administered dose excreted in the urine during 24 h, mean, slow acetylators: slow acetylators of sulphadimidine (5 volunteers)"}, "[6]": {"conditions": "6 h urine after sulphadimidine"}, "[7]": {"set-up": "method as in Testa & Jenner, 1976", "conditions": "ref Testa & Jenner, 1976; cited from earlier work"}, "[8]": {"set-up": "method as in Hoffman & Tagmann, 1954", "conditions": "ref Hoffman & Tagmann, 1954; cited from earlier work"}, "steroidogenesis": {"system": "steroidogenesis", "conditions": "no reference given; cited from earlier work"}},
  "note": "Like-named read-outs stand apart in the source and are kept apart here.",
  "data": [
    {"smiles": "CCC1(c2ccc(N)cc2)CCC(=O)NC1=O", "note": "(stereo not shown) [AG, aminoglutethimide]", "values": [
      {"measurement": "Side effects in patients", "setting": "[1]; patients, ref Smith et al., 1978", "value": "skin rash and lethargy"},
      {"measurement": "Acetylation polymorphism in humans", "setting": "[2]", "value": "polymorphically acetylated"},
      {"measurement": "Plasma level at 0.5 h, mean, slow acetylators", "setting": "[3]; 4 slow acetylators", "value": 1140, "unit": "ng/mL"},
      {"measurement": "Plasma level at 0.5 h, mean, rapid acetylators", "setting": "[3]; 5 rapid acetylators", "value": 960, "unit": "ng/mL"},
      {"measurement": "Plasma level at 2 h, mean, rapid acetylators", "setting": "[3]; 5 rapid acetylators", "value": "0 to 60000", "unit": "ng/mL"},
      {"measurement": "Glucocorticoid production, % of the resting levels", "setting": "bovine adrenal cells", "value": 833, "unit": "%"},
      {"measurement": "Efficacy in the treatment of mammary carcinoma", "setting": "mammary carcinoma", "value": "effective agent"}
    ]},
    {"smiles": "CCC1(c2ccc(NC(C)=O)cc2)CCC(=O)NC1=O", "note": "(stereo not shown) [N-acetylAG, N-Acetylaminoglutethimide]", "values": [
      {"measurement": "Plasma level at 8 h, mean, slow acetylators", "setting": "[3]; 4 slow acetylators", "value": "0 to 37000", "unit": "ng/mL"},
      {"measurement": "Percentage of the administered dose of AG accounted for as urinary metabolite", "setting": "[4]", "value": "4-25%"},
      {"measurement": "Percentage of the administered dose excreted in the urine during 24 h, mean, rapid (fast) acetylators", "setting": "[5]", "value": 8.8, "unit": "%"},
      {"measurement": "Percentage of the administered dose excreted in the urine during 24 h, mean, slow acetylators", "setting": "[5]", "value": 3.9, "unit": "%"},
      {"measurement": "Glucocorticoid production, % of the resting levels", "setting": "bovine adrenal cells", "value": 58, "unit": "%"},
      {"measurement": "Inhibition of steroidogenesis (ability to reduce corticosteroid output)", "setting": "bovine adrenal cells; compared with AG", "value": "poor inhibitor"}
    ]},
    {"smiles": "CC(=O)Nc1ccc(S(=O)(=O)Nc2nc(C)cc(C)n2)cc1", "note": "[N-acetylsulphadimidine]", "values": [
      {"measurement": "Percentage of the excreted dose as N-acetylsulphadimidine, rapid acetylators", "setting": "[6]; rapid acetylators", "value": "89-96%"},
      {"measurement": "Percentage of the excreted dose as N-acetylsulphadimidine, slow acetylators", "setting": "[6]; slow acetylators", "value": "62-68%"}
    ]},
    {"smiles": "CCC1(c2ccc(NC=O)cc2)CCC(=O)NC1=O", "note": "(stereo not shown) [N-formylAG, N-Formylaminoglutethimide]", "values": [
      {"measurement": "Percentage of the administered dose excreted in the urine during 24 h, mean, rapid (fast) acetylators", "setting": "[5]", "value": 0.465, "unit": "%"},
      {"measurement": "Percentage of the administered dose excreted in the urine during 24 h, mean, slow acetylators", "setting": "[5]", "value": 0.475, "unit": "%"}
    ]},
    {"smiles": "Nc1ccc(S(=O)(=O)c2ccc(N)cc2)cc1", "note": "[diaminodiphenylsulphone]", "values": [
      {"measurement": "Acetylation polymorphism in humans", "setting": "[7]", "value": "polymor- phically acetylated"}
    ]},
    {"smiles": "CCC1(c2ccccc2)CCC(=O)NC1=O", "note": "(stereo not shown) [glutethimide]", "values": [
      {"measurement": "Hypnotic activity", "setting": "[8]", "value": "powerful hypnotic"},
      {"measurement": "Inhibitory effect on steroidogenesis", "setting": "steroidogenesis", "value": "little inhibitory effect"}
    ]},
    {"smiles": "NNc1nncc2ccccc12", "note": "[hydralazine]", "values": [
      {"measurement": "Adverse side-effect induced", "setting": "[1]; preponderantly in slow acetylators, ref Perry et al., 1970", "value": "lupus erythematosus"}
    ]},
    {"smiles": "NNC(=O)c1ccncc1", "note": "[isoniazid]", "values": [
      {"measurement": "Acetylation polymorphism in humans", "setting": "[7]", "value": "polymor- phically acetylated"}
    ]},
    {"smiles": "CCC1(c2ccc([N+](=O)[O-])cc2)CCC(=O)NC1=O", "note": "(stereo not shown) [nitroG, Nitroglutethimide]", "values": [
      {"measurement": "Percentage of the administered dose excreted in the urine during 24 h, mean, rapid (fast) acetylators", "setting": "[5]", "value": 0.047, "unit": "%"},
      {"measurement": "Percentage of the administered dose excreted in the urine during 24 h, mean, slow acetylators", "setting": "[5]", "value": 0.10, "unit": "%"}
    ]},
    {"smiles": "Cc1cc(C)nc(NS(=O)(=O)c2ccc(N)cc2)n1", "note": "[sulphamethazine]", "values": [
      {"measurement": "Acetylation polymorphism in humans", "setting": "[7]", "value": "polymor- phically acetylated"}
    ]}
  ]
}
